Key:
Format in all cases: in vivo, human
[1] = system: patient with hypoesthesia and proprioceptive disorders; test: Case report: amiloride cream on hypoesthetic areas, hypoesthesia and proprioceptive disorders after bortezomib; conditions: cream of amiloride 10%, twice a day, after 1 month of use
Method: A patient suffered from hypoesthesia and proprioceptive disorders with difficulty gripping the foot on the ground, impression of walking on cotton and complained of the impression of having a permanently rolled sock under the feet in addition to a sensation of having edematous toes since they received a treatment with bortezomib in 2016 for treating their myeloma. They were treated with a cream of amiloride 10% applied locally to the hypoesthetic areas twice a day.

[2] = system: patients with somatosensory impairments; test: Summary statement: patients treated with a topical composition of amiloride
[3] = system: patient with hypoesthesia with lost sensations in feet and fingertips; test: Case report: amiloride cream, hypoesthesia after oxaliplatine
Method: A patient suffering from colon cancer was treated for 4 months with oxaliplatine in December 2019. They developed hypoesthesia with lost sensations in feet and in the fingertips of both hands and complained of having the impression of a permanently “rolled sock” under the feet. They were treated with a cream of amiloride 10% applied twice a day during one month and they noticed an improvement in the feeling of the right foot “rolled sock” (4/10 vs 8/10 before this treatment), a little less on the left foot (6/10 vs 8/10).

[4] = system: patient with peripheral sensory neuropathy of feet and hands with hypoesthesia and proprioceptive disorders; test: Case report: amiloride cream on hypoesthetic areas, neuropathy induced by Ado-trastuzumab emtansine (T-DM1); conditions: cream of amiloride 5%, applied locally to hypoesthetic areas twice a day
Excerpt: A patient received Ado-trastuzumab emtansine (T-DM1), the first HER2-targeted antibody-drug conjugate to get the approval of the Food and Drug Administration (FDA), for the treatment of their metastatic HER2-positive breast cancer.
For more than 2 years, they had repeated falls due to loss of feeling in their feet, cuts on their hands, unnoticed burns, “splinters in the skin following their gardening activities” with infection in the aftermath because they had not realized it.
They complained of often dropping objects held in their hands and of no longer being able to sew due to the impossibility of holding a fine needle.
They were treated with a cream of amiloride 5% applied locally to the hypoesthetic areas twice a day.

Question: How did the “impression of having a permanently rolled sock under the feet” value [1] turn out when `NC(N)=NC(=O)c1nc(Cl)c(N)nc1N` [amiloride, 3,5-diamino-6-chloro-N-(diaminomethylidene) pyrazine-2-carboxamide] was run?
Answer: disappeared

Question: What about the “impression of walking on cotton” value [1] of the same molecule?
Answer: disappeared

Question: What about the “sensation of edema of the toes” value [1] of the same molecule?
Answer: has disappeared

Question: What about the “feeling of hot and cold on the soles of the feet” value ([1]; patient) of the same molecule?
Answer: feels better hot and cold on the soles of their feet

Question: And the “sensations in insensitive body areas, proprioception and mechanical allodynia” value [2]?
Answer: able to recover sensations in insensitive body areas and a correct proprioception and noted the disappearance of mechanical allodynia

Question: What about the “sensation "rolled sock"” value ([3]; amiloride concentration in the cream increased to 15%) of the same molecule?
Answer: further decrease the sensation “rolled sock” even on the left foot

Question: And the “sensitivity in the fingertips of both hands” value ([3]; cream of amiloride 10%, twice a day during one month)?
Answer: regained the sensitivity in the fingertips of both hands

Question: And the “feeling of "rolled sock", left foot” value ([3]; cream of amiloride 10%, twice a day during one month, 8/10 before treatment)?
Answer: 6/10

Question: What about the “feeling of "rolled sock", right foot” value ([3]; cream of amiloride 10%, twice a day during one month, 8/10 before treatment, patient) of the same molecule?
Answer: 4/10

Question: What about the “sensation of hands and feet” value [4] of the same molecule?
Answer: regained the sensation of their hands and feet

— US20250152583A1, “AMILORIDE FOR USE IN THE TOPICAL TREATMENT OF SOMATOSENSORY IMPAIRMENTS” (ASSISTANCE PUBLIQUE - HOPITAUX DE PARIS, priority 2022, published 2025)
